Assay results: ChEMBL document CHEMBL3832761, “MMV Pathogen Box Bioactivity Data” (2017)
≈ marks a conversion by molar mass, not a printed value.

What was measured:
[1] = tested on: Mycobacterium tuberculosis; experiment: AntiMycobacterium tuberculosis activity Non-Replicating form: Average MIC90 (uM); type: functional
[2] = tested on: Mycobacterium tuberculosis; experiment: AntiMycobacterium tuberculosis activity 1-week GAST/Fe MIC (uM); type: functional; conditions: 168 h
[3] = tested on: Mycobacterium tuberculosis; experiment: AntiMycobacterium tuberculosis activity 2-week GAST/Fe MIC (uM); type: functional; conditions: 336 h
[4] = tested on: Mycobacterium tuberculosis; experiment: AntiMycobacterium tuberculosis activity 1-week 7H9/ADC/Tw MIC (uM); type: functional; conditions: 168 h
[5] = tested on: Mycobacterium tuberculosis; experiment: AntiMycobacterium tuberculosis activity 2-week 7H9/ADC/Tw MIC (uM); type: functional; conditions: 336 h
[6] = tested on: Mycobacterium tuberculosis; experiment: AntiMycobacterium tuberculosis activity 2-week Alamar Blue 7H9/ADC/Tw MIC (uM); type: functional; conditions: 336 h
[7] = tested on: Mycobacterium tuberculosis; experiment: AntiMycobacterium tuberculosis activity 1-week 7H9/glucose/BSA/Tx MIC (uM); type: functional; conditions: 168 h
[8] = tested on: Mycobacterium tuberculosis; experiment: AntiMycobacterium tuberculosis activity 2-week 7H9/glucose/BSA/Tx MIC (uM); type: functional; conditions: 336 h
[9] = tested on: Mycobacterium tuberculosis; experiment: AntiMycobacterium tuberculosis activity 1-week 7H9/DPPC/cholesterol/BSA/Tx MIC (uM); type: functional; conditions: 168 h
[10] = tested on: Mycobacterium tuberculosis; experiment: AntiMycobacterium tuberculosis activity 2-week 7H9/DPPC/cholesterol/BSA/Tx MIC (uM); type: functional; conditions: 336 h
[11] = tested on: Mycobacterium tuberculosis; experiment: AntiMycobacterium tuberculosis activity 1-week 7H9/cholesterol/BSA/Tx MIC (uM); type: functional; conditions: 168 h
[12] = tested on: Mycobacterium tuberculosis; experiment: AntiMycobacterium tuberculosis activity 2-week Alamar Blue 7H9/cholesterol/BSA/Tx MIC (uM); type: functional; conditions: 336 h
[13] = tested on: Mycobacterium tuberculosis; experiment: (§1) AntiMycobacterium tuberculosis activity day 10 in 7H9/2.5mM butyrate/pH6/0.1mM nitrite MIC90 (uM); type: functional; conditions: 240 h
[14] = tested on: Mycobacterium tuberculosis; experiment: AntiMycobacterium tuberculosis activity day 21 in 7H9/2.5mM butyrate/pH6/0.1mM nitrite MIC90 (uM); type: functional; conditions: 504 h
[15] = tested on: Mycobacterium tuberculosis; experiment: as §1; type: functional; conditions: 240 h; remark: listed apart in the source
[16] = tested on: Mycobacterium tuberculosis; experiment: AntiMycobacterium tuberculosis activity day 21 MIC99 in 7H9/2.5mM butyrate/pH6/0.1mM nitrite MIC99 (uM); type: functional; conditions: 504 h
[17] = tested on: Mycobacterium tuberculosis; experiment: AntiMycobacterium tuberculosis activity Replicating form: Average MIC90 (uM); type: functional
[18] = tested on: HepG2; experiment: HepG2 CC50 (uM) Cytotoxicity; type: functional; conditions: Homo sapiens
[19] = tested on: Plasmodium falciparum; experiment: Antimalarial activity: Asexual Blood Stage Plasmodium falciparum 3D7 IC50 (uM); type: functional, organism-based
[20] = tested on: Plasmodium berghei; experiment: Antimalarial activity: Liver Stage Plasmodium berghei sporozoite Luciferase assay: inhibition at 10 uM (%); type: functional
[21] = tested on: Plasmodium falciparum; experiment: Antimalarial activity: Gametocytes Plasmodium falciparum NF54 Gametocytes Stage V: inhibition at 10 uM (%); type: functional
[22] = tested on: Plasmodium falciparum; experiment: Antimalarial activity: Asexual Blood Stage Plasmodium falciparum W2 IC50 (uM); type: functional, organism-based
[23] = tested on: HepG2; experiment: Cytotoxicity data HepG2 CC20 (uM); type: functional

`O=C(NC1CCCCC1)N1CCN(Cc2ccc3c(c2)OCO3)CC1` was tested, and the MIC90 [1] was > 100 µM, the MIC [2] was 0.78 µM (≈ 0.269 µg/mL) and the MIC [3] was 1.2 µM (≈ 0.415 µg/mL). For the same compound, the MIC [4] was > 50 µM, the MIC [5] was > 50 µM and the MIC [6] was 12.5 µM (≈ 4.32 µg/mL). For the same compound, the MIC [7] was > 50 µM, the MIC [8] was > 50 µM and the MIC [9] was 9.4 µM (≈ 3.25 µg/mL). The MIC [10] was 50 µM (≈ 17.3 µg/mL), the MIC [11] was 6.25 µM (≈ 2.16 µg/mL) and the MIC [12] was 12.5 µM (≈ 4.32 µg/mL). For the same compound, the MIC90 [13] was > 50 µM, the MIC90 [14] was 50 µM (≈ 17.3 µg/mL) and the MIC90 [15] was > 50 µM. The MIC [16] was 50 µM (≈ 17.3 µg/mL), the MIC90 [17] was > 100 µM and the CC50 [18] was > 100000 nM.

`CCCCS(=O)(=O)Nc1ccc2cnn(C)c2c1` gave an MIC90 [1] of 1.39 µM (≈ 0.372 µg/mL), an MIC [2] of 0.3 µM (≈ 0.0802 µg/mL) and an MIC [3] of 0.6 µM (≈ 0.16 µg/mL). The MIC [4] was 0.6 µM (≈ 0.16 µg/mL), the MIC [5] was 0.6 µM (≈ 0.16 µg/mL) and the MIC [6] was 0.6 µM (≈ 0.16 µg/mL). The MIC [7] was 0.39 µM (≈ 0.104 µg/mL), the MIC [8] was 0.78 µM (≈ 0.209 µg/mL) and the MIC [9] was 0.39 µM (≈ 0.104 µg/mL). The MIC [10] was 0.6 µM (≈ 0.16 µg/mL), the MIC [11] was 0.6 µM (≈ 0.16 µg/mL) and the MIC [12] was 2.3 µM (≈ 0.615 µg/mL). The MIC90 [13] was 12.5 µM (≈ 3.34 µg/mL), the MIC90 [14] was 50 µM (≈ 13.4 µg/mL) and the MIC90 [15] was > 50 µM. For the same compound, the MIC [16] was 50 µM (≈ 13.4 µg/mL), the MIC90 [17] was 0.69 µM (≈ 0.184 µg/mL) and the CC50 [18] was > 100000 nM.

With `Cc1cc(C)c2cc(C(=O)NC3CCCCCCC3)[nH]c2c1` the MIC90 [1] was 0.01 µM (≈ 0.00298 µg/mL), the MIC [2] was < 0.02 µM and the MIC [3] was < 0.02 µM. For the same compound, the MIC [4] was < 0.02 µM, the MIC [5] was 0.02 µM (≈ 0.00597 µg/mL) and the MIC [6] was 0.02 µM (≈ 0.00597 µg/mL). The MIC [7] was < 0.02 µM, the MIC [8] was < 0.02 µM and the MIC [9] was < 0.02 µM. The MIC [10] was < 0.02 µM, the MIC [11] was < 0.02 µM and the MIC [12] was < 0.02 µM. The MIC90 [13] was ≤ 0.04 µM, the MIC90 [14] was ≤ 0.04 µM and the MIC90 [15] was > 50 µM. The MIC [16] was > 50 µM, the MIC90 [17] was 0.01 µM (≈ 0.00298 µg/mL) and the CC50 [18] was > 100000 nM.

With `O=C(Nc1ccc(C(F)(F)F)c(C(F)(F)F)c1)c1cc(Cl)ccc1O` the MIC90 [1] was 0.1 µM (≈ 0.0384 µg/mL), the MIC [2] was 1.56 µM (≈ 0.599 µg/mL) and the MIC [3] was 2.3 µM (≈ 0.882 µg/mL). For the same compound, the MIC [4] was 3.13 µM (≈ 1.2 µg/mL), the MIC [5] was 4.7 µM (≈ 1.8 µg/mL) and the MIC [6] was 4.7 µM (≈ 1.8 µg/mL). It also gave an MIC [7] of 1.56 µM (≈ 0.599 µg/mL), an MIC [8] of 3.13 µM (≈ 1.2 µg/mL) and an MIC [9] of 2.3 µM (≈ 0.882 µg/mL). It also gave an MIC [10] of 3.13 µM (≈ 1.2 µg/mL), an MIC [11] of 1.56 µM (≈ 0.599 µg/mL) and an MIC [12] of 1.56 µM (≈ 0.599 µg/mL). For the same compound, the MIC90 [13] was 1.5 µM (≈ 0.576 µg/mL), the MIC90 [14] was 1.5 µM (≈ 0.576 µg/mL) and the MIC90 [15] was 1.5 µM (≈ 0.576 µg/mL). The MIC [16] was 1.5 µM (≈ 0.576 µg/mL), the MIC90 [17] was 2.33 µM (≈ 0.894 µg/mL) and the CC50 [18] was 700 nM.

`COc1ccc(-c2cc(NC(=O)c3ccc(F)cc3Cl)ccc2OC)cc1` was tested, and the MIC90 [1] was 67.7 µM (≈ 26.1 µg/mL), the MIC [2] was 3.13 µM (≈ 1.21 µg/mL) and the MIC [3] was 19 µM (≈ 7.33 µg/mL). The MIC [6] was 50 µM (≈ 19.3 µg/mL), the MIC [11] was 25 µM (≈ 9.65 µg/mL) and the CC50 [18] was > 100000 nM.

In the case of `O=C(COc1cccc(F)c1)Nc1nc(-c2ccccn2)cs1`, the MIC90 [1] is reported as 27.5 µM (≈ 9.07 µg/mL), the MIC [2] is reported as 1.2 µM (≈ 0.395 µg/mL) and the MIC [3] is reported as 2.3 µM (≈ 0.758 µg/mL). It also gave an MIC [4] of 37 µM (≈ 12.2 µg/mL), an MIC [5] of 50 µM (≈ 16.5 µg/mL) and an MIC [6] of 50 µM (≈ 16.5 µg/mL). It also gave an MIC [7] of 19 µM (≈ 6.26 µg/mL), an MIC [8] of 37 µM (≈ 12.2 µg/mL) and an MIC [9] of 19 µM (≈ 6.26 µg/mL). For the same compound, the MIC [10] was 50 µM (≈ 16.5 µg/mL), the MIC [11] was 19 µM (≈ 6.26 µg/mL) and the MIC [12] was 37 µM (≈ 12.2 µg/mL). For the same compound, the MIC90 [13] was 12.5 µM (≈ 4.12 µg/mL), the MIC90 [14] was 25 µM (≈ 8.23 µg/mL) and the MIC90 [15] was > 50 µM. For the same compound, the MIC [16] was > 50 µM and the MIC90 [17] was 84.4 µM (≈ 27.8 µg/mL).

`O=C(NCCN1CCCC1)c1cc(NCCCCN2CCC(F)(F)CC2)nc2ccc(Cl)cc12` was tested, and the IC50 [19] was 10 nM, the inhibition [20] was “Series known to be active” and the inhibition [21] was “Series known to be active”.

In the case of `Cc1cc(Nc2ccc(C(F)(F)F)cc2)n2ccnc2n1`, the IC50 [19] is reported as 380 nM, the IC50 [22] is reported as 360 nM and the inhibition [20] is reported as “Series known to be active”. For the same compound, the inhibition [21] was “Series known to be inactive”.

With `Nc1ncnc2c1ncn2C[C@@H](O)[C@@H](O)C(=O)O` [ERITADENINE] the CC20 [23] was >80000 nM.
